Data: patent publication US20230054194A1, “Methods of Treating Cancer” (ARIAGEN, INC., priority 2018, published 2023)

What was measured:
[1] = tested on: Hepa1-6; assay: Hepa1-6 subcutaneous syngeneic liver cancer mouse model (Study 9), tumor growth inhibition; assay type: in vivo, mouse (C57BL/6)
Protocol: (§1) In this example, the in vivo anti-tumor efficacy of ARI-001, ARI-002, ARI-003, and ARI-143 and their combinations with an anti-PD-1 antibody was evaluated using a panel of twelve subcutaneous syngeneic mouse tumor models.
(§2) Eleven subcutaneous syngeneic mouse tumor models were generated by innoculating female BALB/C or C57BL/6 mice with cancer cells at their right lower or right front flank followed by randomization as detailed in Table 4 below.
(§3) A solution of a rat monoclonal anti-mouse PD-1 antibody (isotype IgG2a, κ) at a concentration of 6.61 mg/ml was obtained from BioXcell (InVivoMAb anti-mouse PD-1 (CD279), Clone RMP1-14, Cat #BE0146)) and store at 4° C. The antibody solution was diluted with PBS to obtain a 1 mg/ml dosing solution.
(§4) ARI-001, ARI-002, and ARI-003 powder was stored at −20° C. The powder of each compound was dissolved in DMSO to obtain dosing solutions at 106.7, 80, and 53.33 mg/ml for administration to mice at 160, 120, and 80 mg/kg, respectively. ARI-143 was similarly prepared.
(§5) Twelve studies using the twelve subcutaneous syngeneic mouse tumor models were performed. In each study, 80 mice were enrolled and randomly allocated to eight different study groups, with 10 mice in each study group. The mean tumor size at randomization was approximately 80-120 mm^3 (around 100 mm^3). Randomization was performed based on “Matched distribution” randomization method (StudyDirector™ software, version 3.1.399.19). […] All the drugs and vehicle controls were injected to the mice intraperitoneally.
(§6) After tumor cell inoculation, the animals were checked daily for morbidity and mortality. At the time of routine monitoring, the animals were checked for any effects of tumor growth and treatments on behavior such as mobility, food and water consumption, body weight gain/loss (body weights were measured twice or three times per week after randomization), and any other abnormalities. Mortality and observed clinical signs were recorded for individual animals. Tumor volumes were measured twice or three times weekly after randomization in two dimensions using a caliper, and the volume was expressed in mm^3 using the formula: […]
(§7) where V is tumor volume, L is tumor length (the longest tumor dimension) and W is tumor width (the longest tumor dimension perpendicular to L).
(§8) The study was terminated when the mean tumor volume (MTV) in the vehicle group reached a value of 2,000 mm^3. Tumor growth inhibition (TGI) is an indication of antitumor activity, and expressed as: […]
(§9) where T and C are the MTV (or weight) of the treated and control groups, respectively, on a given day. Statistical analysis of the difference in MTV among the groups was conducted using the data collected on the day when the MTV of the vehicle group reached the humane endpoints, so that TGI could be derived for all or most mice enrolled in the study.
(§10) Statistical analysis of differences in MTV among the groups was conducted by Independent-Samples T Test using the data collected. All data were analyzed with SPSS (Statistical Product and Service Solutions) version 18.0 (IBM, Armonk, N.Y., U.S.). P-values were rounded to three decimal places, with the exception that raw P-values less than 0.001 were stated as P<0.001. All tests were two-sided. P<0.05 was considered to be statistically significant.
FIG. 68 is a graph showing the mean tumor volume on different study days in the study groups as indicated according to Study 9 (Hepal-6). The study end day was Day 26.

[2] = tested on: Renca; assay: Renca subcutaneous syngeneic kidney cancer mouse model (Study 8), tumor growth inhibition; assay type: in vivo, mouse (BALB/C)
Protocol: as §1, §2, §3, §4, §5, §6, §7, §8, §9, §10
FIG. 67 is a graph showing the mean tumor volume on different study days in the study groups as indicated according to Study 8 (Renca). The study end day was Day 28.

[3] = tested on: LL/2; assay: LL/2 subcutaneous syngeneic lung cancer mouse model (Study 6), tumor growth inhibition; assay type: in vivo, mouse (C57BL/6)
Protocol: as §1, §2, §3, §4, §5, §6, §7, §8, §9, §10
FIG. 65 is a graph showing the mean tumor volume on different study days in the study groups as indicated according to Study 6 (LL/2). The study end day was Day 32.

[4] = tested on: RM-1; assay: RM-1 subcutaneous syngeneic prostate cancer mouse model (Study 7), tumor growth inhibition; assay type: in vivo, mouse (C57BL/6); conditions: RM-1 model, study end day Day 19
Protocol: as §1, §2, §3, §4, §5, §6, §7, §8, §9, §10
FIG. 66 is a graph showing the mean tumor volume on different study days in the study groups as indicated according to Study 7 (RM-1). The study end day was Day 19.

[5] = tested on: Pan02; assay: Pan02 subcutaneous syngeneic pancreatic cancer mouse model (Study 3), tumor growth inhibition; assay type: in vivo, mouse (C57BL/6)
Protocol: as §1, §2, §3, §4, §5, §6, §7, §8, §9, §10
FIG. 62 is a graph showing the mean tumor volume on different study days in the study groups as indicated according to Study 3 (Pan02). The study end day was Day 32.

[6] = tested on: CT26; assay: CT-26 subcutaneous syngeneic colon cancer mouse model (Study 4), tumor growth inhibition; assay type: in vivo, mouse (BALB/C); conditions: CT-26 model, i.p.; ARI compounds 160 mg/kg QD × 15 doses, Anti-PD-1 10 BIW × 5 doses; study end day Day 23
Protocol: as §1, §2, §3, §4, §5, §6, §7, §8, §9, §10
FIG. 63 is a graph showing the mean tumor volume on different study days in the study groups as indicated according to Study 4 (CT-26). The study end day was Day 23.

[7] = tested on: B16F10; assay: B16F10 subcutaneous syngeneic melanoma mouse model (Study 10), tumor growth inhibition; assay type: in vivo, mouse (C57BL/6)
Protocol: as §1, §2, §3, §4, §5, §6, §7, §8, §9, §10
FIG. 69 is a graph showing the mean tumor volume on different study days in the study groups as indicated according to Study 10 (B16F10). The study end day was Day 19.

[8] = tested on: EMT-6; assay: EMT-6 subcutaneous syngeneic breast cancer mouse model (Study 2 and Study 12), tumor growth inhibition; assay type: in vivo, mouse (BALB/C); conditions: EMT-6 syngeneic breast cancer model
Protocol: as §1, §2, §3, §4, §5, §6, §7, §8, §9, §10
FIG. 61 is a graph showing the mean tumor volume on different study days in the study groups as indicated according to Study 2 (EMT-6). The study end day was Day 27.

[9] = tested on: MC38; assay: MC38 subcutaneous syngeneic colon cancer mouse model (Study 1), tumor growth inhibition; assay type: in vivo, mouse (C57BL/6)
Protocol: as §1, §2, §3, §4, §5, §6, §7, §8, §9, §10
FIG. 60 is a graph showing the mean tumor volume on different study days in the study groups as indicated according to Study 1 (MC38). The study end day was Day 26.

[10] = tested on: A20; assay: A20 subcutaneous syngeneic lymphoma mouse model (Study 5), tumor growth inhibition; assay type: in vivo, mouse (BALB/C); conditions: A20 model, i.p.; ARI compounds 160 mg/kg QD × 14 doses, Anti-PD-1 10 BIW × 4 doses; study end day Day 26
Protocol: as §1, §2, §3, §4, §5, §6, §7, §8, §9, §10
FIG. 64 is a graph showing the mean tumor volume on different study days in the study groups as indicated according to Study 5 (A20). The study end day was Day 26.

[11] = tested on: H22; assay: H22 subcutaneous syngeneic liver cancer mouse model (Study 11), tumor growth inhibition; assay type: in vivo, mouse (BALB/C)
Protocol: as §1, §2, §3, §4, §5, §6, §7, §8, §9, §10
FIG. 70 is a graph showing the mean tumor volume on different study days in the study groups as indicated according to Study 11 (H22). The study end day was Day 18.

[12] = Pan02 model, i.p., ARI compounds 160 mg/kg QD × 28 doses, Anti-PD-1 10 BIW × 8 doses, study end day Day 32
[13] = Pan02 syngeneic pancreatic cancer model
[14] = MC38 model, i.p., ARI compounds 160 mg/kg QD × 17 doses, Anti-PD-1 10 BIW × 5 doses, study end day Day 26

NC(=O)c1csc(C(=O)c2c[nH]c3ccccc23)n1 [ARI-003]
Tumor size ([1]; Hepa1-6 model, Mean ± SEM, study end day Day 26, in mm³): 1251.31 ± 158.72 | TGI(%) ([1]; Hepa1-6 model, study end day Day 26): 23% | anti-tumor potency of the compound combined with anti-PD-1 antibody, compared to being used alone ([1]; Hepa1-6 syngeneic liver cancer model): statistically significant increase | Tumor size ([2]; Renca model, Mean ± SEM, study end day Day 28, in mm³): 1240.04 ± 90.09 | TGI(%) ([2]; Renca model, study end day Day 28): 42% | anti-tumor potency of anti-PD-1 antibody combined with the compound, compared to the antibody alone ([2]; Renca syngeneic kidney cancer model): statistically significant increase | Tumor size ([3]; LL/2 model, Mean ± SEM, study end day Day 32, in mm³): 839.79 ± 99.43 | TGI(%) ([3]; LL/2 model, study end day Day 32): 62% | anti-tumor potency of anti-PD-1 antibody combined with the compound, compared to the antibody alone or the vehicle ([3]; LL/2 syngeneic lung cancer model): statistically significant increase | Tumor size ([4]; Mean ± SEM, in mm³): 1703.05 ± 39.79 | TGI(%) [4]: 43% | TGI(%) [5, 12]: 62% | Tumor size (Mean ± SEM) [5, 12]: 340.16 ± 49.76 mm^3 | anti-tumor potency of anti-PD-1 antibody combined with the compound, compared to the antibody alone [5, 13]: statistically significant increase | anti-tumor potency of the compound combined with anti-PD-1 antibody, compared to being used alone [5, 13]: statistically significant increase | TGI(%) [6]: 64% | Tumor size (Mean ± SEM) [6]: 836.51 ± 110.61 mm^3 | Tumor size ([7]; B16F10 model, Mean ± SEM, study end day Day 19, in mm³): 2234.18 ± 248.14 | TGI(%) ([7]; B16F10 model, study end day Day 19): 24% | anti-tumor potency of anti-PD-1 antibody combined with the compound, compared to the antibody alone or the vehicle ([7]; B16F10 syngeneic melanoma model): statistically significant increase | anti-tumor potency of anti-PD-1 antibody combined with the compound, compared to the antibody alone or the vehicle [8]: statistically significant increase | TGI(%) [9, 14]: 35% | Tumor size (Mean ± SEM) [9, 14]: 1691.11 ± 123.57 mm^3 | anti-tumor potency of anti-PD-1 antibody combined with the compound, compared to the antibody alone or the vehicle ([9]; MC38 syngeneic colon cancer model): statistically significant increase | TGI(%) [10]: 54% | Tumor size (Mean ± SEM) [10]: 1206.83 ± 121.06 mm^3 | Tumor size ([11]; H22 model, Mean ± SEM, study end day Day 18, in mm³): 1547.54 ± 100.51 | TGI(%) ([11]; H22 model, study end day Day 18): 31% | anti-tumor potency of the compound combined with anti-PD-1 antibody, compared to being used alone ([11]; H22 syngeneic liver cancer model): statistically significant increase
